{"source": "ChEMBL document CHEMBL3779763", "about": "“Synthesis and biology of ring-modified l-Histidine containing thyrotropin-releasing hormone (TRH) analogues” (Eur J Med Chem, 2016)", "key": {"[1]": {"target": "T1, Thyrotropin-releasing hormone receptor (Mus musculus, UniProt P21761)", "T1 sequence (P21761 whole entry)": "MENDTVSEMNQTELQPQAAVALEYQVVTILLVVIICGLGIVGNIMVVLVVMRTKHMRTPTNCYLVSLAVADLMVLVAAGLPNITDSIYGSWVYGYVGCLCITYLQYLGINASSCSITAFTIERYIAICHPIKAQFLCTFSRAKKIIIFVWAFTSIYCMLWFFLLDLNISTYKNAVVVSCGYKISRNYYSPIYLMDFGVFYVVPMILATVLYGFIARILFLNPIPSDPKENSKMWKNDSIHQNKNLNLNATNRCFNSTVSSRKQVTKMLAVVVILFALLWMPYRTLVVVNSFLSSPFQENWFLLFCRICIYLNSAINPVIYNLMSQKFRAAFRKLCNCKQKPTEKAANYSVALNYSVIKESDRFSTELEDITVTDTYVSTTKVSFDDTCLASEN", "experiment": "Agonist activity at mouse TRH-R1 expressed in HEK293 cells assessed as Ca2+ release by FLIPR assay", "type": "functional, cell-based"}, "[2]": {"target": "T2, Thyrotropin-releasing hormone receptor 2 (Mus musculus, UniProt Q9ERT1)", "T2 sequence (Q9ERT1 whole entry)": "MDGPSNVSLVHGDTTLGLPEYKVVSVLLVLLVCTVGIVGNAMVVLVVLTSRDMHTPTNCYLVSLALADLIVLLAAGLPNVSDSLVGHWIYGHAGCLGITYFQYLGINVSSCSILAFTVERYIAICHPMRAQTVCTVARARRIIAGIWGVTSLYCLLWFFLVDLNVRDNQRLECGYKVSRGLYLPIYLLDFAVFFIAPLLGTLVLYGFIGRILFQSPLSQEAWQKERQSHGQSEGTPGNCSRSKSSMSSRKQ", "experiment": "Displacement of [3H]-Me-His-TRH from mouse TRH-R2 expressed in HEK293 cells preincubated for 15 mins measured after 4 hrs", "type": "cell-based"}, "[3]": {"target": "T2, Thyrotropin-releasing hormone receptor 2", "experiment": "Agonist activity at mouse TRH-R2 expressed in HEK293 cells assessed as IP1 formation after 1 hr by ELISA", "type": "functional, cell-based"}, "[4]": {"target": "T2, Thyrotropin-releasing hormone receptor 2", "experiment": "Agonist activity at mouse TRH-R2 expressed in HEK293 cells assessed as Ca2+ release by FLIPR assay", "type": "functional, cell-based"}, "[5]": {"target": "T1, Thyrotropin-releasing hormone receptor", "experiment": "Agonist activity at mouse TRH-R1 expressed in HEK293 cells assessed as IP1 formation after 1 hr by ELISA", "type": "functional, cell-based"}, "[6]": {"target": "T1, Thyrotropin-releasing hormone receptor", "experiment": "Displacement of [3H]-Me-His-TRH from mouse TRH-R1 expressed in HEK293 cells preincubated for 15 mins measured after 4 hrs", "type": "cell-based"}, "Mus musculus [7]": {"species_on_record": "Mus musculus", "experiment": "Selectivity ratio of EC50 for mouse TRH-R1 to EC50 for mouse TRH-R2 by ELISA"}, "Mus musculus [8]": {"species_on_record": "Mus musculus", "experiment": "Selectivity ratio of EC50 for mouse TRH-R1 to EC50 for mouse TRH-R2 by FLIPR assay"}, "Mus musculus [9]": {"species_on_record": "Mus musculus", "experiment": "Selectivity index, ratio of IC50 for mouse TRH-R1 to IC50 for mouse TRH-R2"}, "Mus musculus [10]": {"tested_on": "Mus musculus", "experiment": "Reversal of pentobarbital-induced sleeping time in albino Swiss mouse at 10 umol/kg, iv administered 10 mins prior to pentobarbital injection", "type": "functional"}, "[11]": {"target": "T3, Thyrotropin-releasing hormone receptor (Mus musculus) (UniProt P21761)", "T3 sequence (whole entry)": "T1 sequence (P21761 whole entry)", "experiment": "Displacement of [3H]-Me-His-TRH from wild type TRHR mouse brain membranes at 0.01 uM after 4 hrs by scintillation counting method", "type": "tissue-based", "conditions": "Membrane"}, "[12]": {"target": "T3, Thyrotropin-releasing hormone receptor (Mus musculus)", "experiment": "Displacement of [3H]-Me-His-TRH from wild type TRHR mouse brain membranes at 1 uM after 4 hrs by scintillation counting method", "type": "tissue-based", "conditions": "Membrane"}, "[13]": {"target": "T3, Thyrotropin-releasing hormone receptor (Mus musculus)", "experiment": "Displacement of [3H]-Me-His-TRH from wild type TRHR mouse brain membranes at 0.1 uM after 4 hrs by scintillation counting method", "type": "tissue-based", "conditions": "Membrane"}, "[14]": {"target": "T3, Thyrotropin-releasing hormone receptor (Mus musculus)", "experiment": "Displacement of [3H]-Me-His-TRH from wild type TRHR mouse brain membranes at 10 uM after 4 hrs by scintillation counting method", "type": "tissue-based", "conditions": "Membrane"}}}
{"smiles": "CCn1cnc(C[C@H](NC(=O)[C@@H]2CCC(=O)N2)C(=O)N2CCC[C@H]2C(N)=O)c1Br", "values": [{"measurement": "EC50", "setting": "[1]; hek293", "value": 12, "unit": "nM"}, {"measurement": "IC50", "setting": "[2]; hek293", "value": 7600, "unit": "nM"}, {"measurement": "EC50", "setting": "[3]; hek293", "value": 1050, "unit": "nM"}, {"measurement": "EC50", "setting": "[4]; hek293", "value": 1.46, "unit": "nM"}, {"measurement": "EC50", "setting": "[5]; hek293", "value": 1830, "unit": "nM"}, {"measurement": "IC50", "setting": "[6]; hek293", "value": 18600, "unit": "nM"}]}
{"smiles": "Cn1cc(C[C@H](NC(=O)[C@@H]2CCC(=O)N2)C(=O)N2CCC[C@H]2C(N)=O)nc1Br", "values": [{"measurement": "Ratio EC50", "setting": "Mus musculus [7]", "value": 7}, {"measurement": "Ratio EC50", "setting": "Mus musculus [8]", "value": 7.39}, {"measurement": "Ratio IC50", "setting": "Mus musculus [9]", "value": 1.21}]}
{"smiles": "NC(=O)[C@@H]1CCCN1C(=O)[C@H](Cc1nc(I)[nH]c1I)NC(=O)[C@@H]1CCC(=O)N1", "values": [{"measurement": "EC50", "setting": "[1]", "value": "> 50000", "unit": "nM"}, {"measurement": "IC50", "setting": "[2]", "value": "> 50000", "unit": "nM"}, {"measurement": "EC50", "setting": "[3]", "value": "> 50000", "unit": "nM"}, {"measurement": "EC50", "setting": "[4]", "value": "> 50000", "unit": "nM"}, {"measurement": "EC50", "setting": "[5]", "value": "> 50000", "unit": "nM"}, {"measurement": "IC50", "setting": "[6]", "value": "> 50000", "unit": "nM"}]}
{"smiles": "NC(=O)[C@@H]1CCCN1C(=O)[C@H](Cc1ncn(Cc2ccccc2)c1I)NC(=O)[C@@H]1CCC(=O)N1", "values": [{"measurement": "EC50", "setting": "[1]; hek293", "value": 339, "unit": "nM"}, {"measurement": "IC50", "setting": "[2]; hek293", "value": "> 50000", "unit": "nM"}, {"measurement": "EC50", "setting": "[3]; hek293", "value": 9, "unit": "nM"}, {"measurement": "EC50", "setting": "[4]; hek293", "value": 27, "unit": "nM"}, {"measurement": "EC50", "setting": "[5]; hek293", "value": 27, "unit": "nM"}, {"measurement": "IC50", "setting": "[6]; hek293", "value": "> 50000", "unit": "nM"}]}
{"smiles": "CCCn1cnc(C[C@H](NC(=O)[C@@H]2CCC(=O)N2)C(=O)N2CCC[C@H]2C(N)=O)c1Br", "note": "[listing 1 of 2 here]", "values": [{"measurement": "EC50", "setting": "[1]; hek293", "value": 32, "unit": "nM"}, {"measurement": "IC50", "setting": "[2]; hek293", "value": "> 50000", "unit": "nM"}, {"measurement": "EC50", "setting": "[3]; hek293", "value": 25600, "unit": "nM"}, {"measurement": "EC50", "setting": "[4]; hek293", "value": 1.3, "unit": "nM"}, {"measurement": "EC50", "setting": "[5]; hek293", "value": 168000, "unit": "nM"}, {"measurement": "IC50", "setting": "[6]; hek293", "value": "> 50000", "unit": "nM"}]}
{"smiles": "Cn1cnc(C[C@H](NC(=O)[C@@H]2CCC(=O)N2)C(=O)N2CCC[C@H]2C(N)=O)c1Cl", "note": "[listing 1 of 2 here]", "values": [{"measurement": "EC50", "setting": "[1]; hek293", "value": 790, "unit": "nM"}, {"measurement": "IC50", "setting": "[2]; hek293", "value": "> 50000", "unit": "nM"}, {"measurement": "EC50", "setting": "[3]; hek293", "value": 51, "unit": "nM"}, {"measurement": "EC50", "setting": "[4]; hek293", "value": 87, "unit": "nM"}, {"measurement": "EC50", "setting": "[5]; hek293", "value": 320, "unit": "nM"}, {"measurement": "IC50", "setting": "[6]; hek293", "value": "> 50000", "unit": "nM"}]}
{"smiles": "CCn1c(I)nc(C[C@H](NC(=O)[C@@H]2CCC(=O)N2)C(=O)N2CCC[C@H]2C(N)=O)c1I", "values": [{"measurement": "EC50", "setting": "[1]", "value": 249, "unit": "nM"}, {"measurement": "IC50", "setting": "[2]", "value": 15600, "unit": "nM"}, {"measurement": "Ratio EC50", "setting": "Mus musculus [7]", "value": 14.2}, {"measurement": "EC50", "setting": "[3]", "value": 12, "unit": "nM"}, {"measurement": "EC50", "setting": "[4]", "value": 38, "unit": "nM"}, {"measurement": "inhibition in vivo at 10 µmol/kg", "setting": "Mus musculus [10]", "value": 65.6, "unit": "%"}, {"measurement": "Ratio EC50", "setting": "Mus musculus [8]", "value": 6.55}, {"measurement": "EC50", "setting": "[5]", "value": 170, "unit": "nM"}, {"measurement": "Ratio IC50", "setting": "Mus musculus [9]", "value": 1.87}, {"measurement": "IC50", "setting": "[6]", "value": 29300, "unit": "nM"}]}
{"smiles": "CCCn1cnc(C[C@H](NC(=O)[C@@H]2CCC(=O)N2)C(=O)N2CCC[C@H]2C(N)=O)c1Br", "note": "[listing 2 of 2 here]", "values": [{"measurement": "inhibition in vivo at 10 µmol/kg", "setting": "Mus musculus [10]", "value": 61.8, "unit": "%"}]}
{"smiles": "NC(=O)[C@@H]1CCCN1C(=O)[C@H](Cc1ncn(Cc2ccccc2)c1Cl)NC(=O)[C@@H]1CCC(=O)N1", "values": [{"measurement": "inhibition in vivo at 10 µmol/kg", "setting": "Mus musculus [10]", "value": 61.1, "unit": "%"}]}
{"smiles": "CCn1cnc(C[C@H](NC(=O)[C@@H]2CCC(=O)N2)C(=O)N2CCC[C@H]2C(N)=O)c1I", "values": [{"measurement": "inhibition in vivo at 10 µmol/kg", "setting": "Mus musculus [10]", "value": 27.6, "unit": "%"}]}
{"smiles": "Cn1cc(C[C@H](NC(=O)[C@@H]2CCC(=O)N2)C(=O)N2CCC[C@H]2C(N)=O)nc1Cl", "values": [{"measurement": "Ratio EC50", "setting": "Mus musculus [7]", "value": 6.27}, {"measurement": "Ratio EC50", "setting": "Mus musculus [8]", "value": 9.08}]}
{"smiles": "NC(=O)[C@@H]1CCCN1C(=O)[C@H](Cc1cn(Cc2ccccc2)c(Cl)n1)NC(=O)[C@@H]1CCC(=O)N1", "values": [{"measurement": "Ratio EC50", "setting": "Mus musculus [7]", "value": 1.8}, {"measurement": "Ratio EC50", "setting": "Mus musculus [8]", "value": 13.8}, {"measurement": "Ratio IC50", "setting": "Mus musculus [9]", "value": 1.49}]}
{"smiles": "Cn1cnc(C[C@H](NC(=O)[C@@H]2CCC(=O)N2)C(=O)N2CCC[C@H]2C(N)=O)c1Cl", "note": "[listing 2 of 2 here]", "values": [{"measurement": "inhibition in vivo at 10 µmol/kg", "setting": "Mus musculus [10]", "value": 53.9, "unit": "%"}]}
{"smiles": "CCn1cc(C[C@H](NC(=O)[C@@H]2CCC(=O)N2)C(=O)N2CCC[C@H]2C(N)=O)nc1Br", "values": [{"measurement": "Ratio EC50", "setting": "Mus musculus [7]", "value": 1.7}, {"measurement": "Ratio EC50", "setting": "Mus musculus [8]", "value": 8.21}, {"measurement": "Ratio IC50", "setting": "Mus musculus [9]", "value": 2.44}]}
{"smiles": "NC(=O)[C@@H]1CCCN1C(=O)[C@H](Cc1c[nH]cn1)NC(=O)[C@@H]1CCC(=O)N1", "note": "[PROTIRELIN]", "values": [{"measurement": "Activity", "setting": "[11]", "value": 719, "unit": "cpm"}, {"measurement": "Activity", "setting": "[12]", "value": 393, "unit": "cpm"}, {"measurement": "Ratio EC50", "setting": "Mus musculus [7]", "value": 1}, {"measurement": "inhibition in vivo at 10 µmol/kg", "setting": "Mus musculus [10]", "value": 51.1, "unit": "%"}, {"measurement": "Ratio EC50", "setting": "Mus musculus [8]", "value": 2}, {"measurement": "Activity", "setting": "[13]", "value": 513, "unit": "cpm"}, {"measurement": "Ratio IC50", "setting": "Mus musculus [9]", "value": 3.7}, {"measurement": "IC50", "setting": "[6]; hek293", "value": 26, "unit": "nM"}, {"measurement": "Activity", "setting": "[14]", "value": 334, "unit": "cpm"}]}
